Measurements from the NIST ThermoML archive (doi:10.1021/je5010643).

Assay: xn = mol fraction of the nth substance listed
Conditions: 101.32 kPa, Liquid; for speed of sound: Frequency=3 MHz, Linear variable-path acoustic interferometer

CC(C)C(=O)O [2-methylpropanoic acid] + C1COCCO1
Conditions | mass density [kg/m3] | speed of sound [m/s]
295.15 K, x2 = 0 | 945.28 | 1100.2
295.15 K, x2 = 0.1 | 955.63 | 1119.6
295.15 K, x2 = 0.2 | 965.46 | 1140
295.15 K, x2 = 0.3 | 975.08 | 1161.7
295.15 K, x2 = 0.4 | 984.2 | 1184.5
295.15 K, x2 = 0.5 | 993.05 | 1208.8
295.15 K, x2 = 0.6 | 1001.52 | 1234.7
295.15 K, x2 = 0.7 | 1009.56 | 1262.3
295.15 K, x2 = 0.8 | 1017.23 | 1291.8
295.15 K, x2 = 0.9 | 1024.38 | 1323.6
298.15 K, x2 = 0 | 942.22 | 1086
298.15 K, x2 = 0.1 | 952.65 | 1105.4
298.15 K, x2 = 0.2 | 962.63 | 1125.9
298.15 K, x2 = 0.3 | 972.12 | 1147.5
298.15 K, x2 = 0.4 | 981.18 | 1170.5
298.15 K, x2 = 0.5 | 989.97 | 1194.9
298.15 K, x2 = 0.6 | 998.46 | 1220.8
298.15 K, x2 = 0.7 | 1006.5 | 1248.6
298.15 K, x2 = 0.8 | 1014.12 | 1278.3
298.15 K, x2 = 0.9 | 1021.3 | 1310.3
301.15 K, x2 = 0 | 939.16 | 1072.1
301.15 K, x2 = 0.1 | 949.87 | 1091.5
301.15 K, x2 = 0.2 | 959.66 | 1111.9
301.15 K, x2 = 0.3 | 969.21 | 1133.6
301.15 K, x2 = 0.4 | 978.18 | 1156.6
301.15 K, x2 = 0.5 | 986.93 | 1181.1
301.15 K, x2 = 0.6 | 995.31 | 1207.2
301.15 K, x2 = 0.7 | 1003.43 | 1235
301.15 K, x2 = 0.8 | 1011.08 | 1264.9
301.15 K, x2 = 0.9 | 1018.24 | 1297.1
304.15 K, x2 = 0 | 936.1 | 1058.2
304.15 K, x2 = 0.1 | 946.87 | 1077.6
304.15 K, x2 = 0.2 | 956.7 | 1098
304.15 K, x2 = 0.3 | 966.21 | 1119.7
304.15 K, x2 = 0.4 | 975.19 | 1142.8
304.15 K, x2 = 0.5 | 983.97 | 1167.3
304.15 K, x2 = 0.6 | 992.36 | 1193.4
304.15 K, x2 = 0.7 | 1000.47 | 1221.5
304.15 K, x2 = 0.8 | 1008.1 | 1251.5
304.15 K, x2 = 0.9 | 1015.19 | 1283.9
307.15 K, x2 = 0 | 933.04 | 1043.4
307.15 K, x2 = 0.1 | 943.94 | 1062.8
307.15 K, x2 = 0.2 | 953.7 | 1083.4
307.15 K, x2 = 0.3 | 963.19 | 1105.1
307.15 K, x2 = 0.4 | 972.14 | 1128.3
307.15 K, x2 = 0.5 | 981.02 | 1152.9
307.15 K, x2 = 0.6 | 989.41 | 1179.3
307.15 K, x2 = 0.7 | 997.53 | 1207.5
307.15 K, x2 = 0.8 | 1005.12 | 1237.9
307.15 K, x2 = 0.9 | 1011.87 | 1270.7
310.15 K, x2 = 0 | 929.98 | 1030.8
310.15 K, x2 = 0.1 | 941.03 | 1050.1
310.15 K, x2 = 0.2 | 950.89 | 1070.6
310.15 K, x2 = 0.3 | 960.24 | 1092.3
310.15 K, x2 = 0.4 | 969.24 | 1115.4
310.15 K, x2 = 0.5 | 978.07 | 1139.9
310.15 K, x2 = 0.6 | 986.45 | 1166.3
310.15 K, x2 = 0.7 | 994.54 | 1194.5
310.15 K, x2 = 0.8 | 1002.1 | 1224.9
310.15 K, x2 = 0.9 | 1008.86 | 1257.7
313.15 K, x2 = 0 | 926.92 | 1015.2
313.15 K, x2 = 0.1 | 938.11 | 1034.6
313.15 K, x2 = 0.2 | 947.93 | 1055.1
313.15 K, x2 = 0.3 | 957.22 | 1076.9
313.15 K, x2 = 0.4 | 966.21 | 1100.2
313.15 K, x2 = 0.5 | 975.03 | 1125
313.15 K, x2 = 0.6 | 983.45 | 1151.6
313.15 K, x2 = 0.7 | 991.62 | 1180.1
313.15 K, x2 = 0.8 | 999.14 | 1210.9
313.15 K, x2 = 0.9 | 1005.92 | 1244.2
